Experimental data from ChEMBL document CHEMBL1128663, “Wiedendiol-A and -B, cholesteryl ester transfer protein inhibitors from the marine sponge Xestospongia wiedenmayeri” (Bioorg Med Chem Lett, 1995).

target: T1, Cholesteryl ester transfer protein (Homo sapiens, UniProt P11597); assay: Compound was tested for CETP inhibition by a precipitation method to separate lipoproteins after incubation of radiolabeled HDL with LDL and CETP.
T1 sequence (P11597 whole entry): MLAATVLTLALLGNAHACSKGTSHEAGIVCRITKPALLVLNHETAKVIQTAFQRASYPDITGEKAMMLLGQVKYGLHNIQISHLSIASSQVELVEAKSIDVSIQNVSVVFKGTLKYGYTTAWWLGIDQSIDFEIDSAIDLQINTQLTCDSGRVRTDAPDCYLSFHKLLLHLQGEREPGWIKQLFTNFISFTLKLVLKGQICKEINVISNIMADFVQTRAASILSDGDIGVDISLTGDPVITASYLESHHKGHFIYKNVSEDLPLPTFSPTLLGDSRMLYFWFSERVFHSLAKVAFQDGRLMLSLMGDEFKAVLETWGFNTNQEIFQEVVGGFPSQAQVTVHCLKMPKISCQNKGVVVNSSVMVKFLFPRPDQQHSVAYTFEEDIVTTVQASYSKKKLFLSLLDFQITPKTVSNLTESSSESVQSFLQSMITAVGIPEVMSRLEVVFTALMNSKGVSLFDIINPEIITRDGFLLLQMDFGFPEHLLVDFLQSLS

| Structure (SMILES) | IC50 [µM] |
| --- | --- |
| COc1ccc(O)c(O)c1/C=C1\[C@@H](C)CCC2C(C)(C)CCC[C@]12C (some centres not stated) | 0.6 |
| COc1ccc(O)c(O)c1CC1=C(C)CCC2C(C)(C)CCC[C@]12C (some centres not stated) | 1 |

target: T1, Cholesteryl ester transfer protein; assay: Compound was tested for Cholesteryl ester transfer protein (CETP) inhibition by CETP-SPA assay

| Structure (SMILES) | IC50 [µM] |
| --- | --- |
| COc1ccc(O)c2c1C[C@]1(C)[C@@H](C)CCC3C(C)(C)CCC[C@]31O2 (some centres not stated) | 46 |
| C[C@H]1CCC2C(C)(C)CCC[C@]23Oc2ccc(O)cc2C[C@]13C (some centres not stated) | 22 |
| COc1ccc(O)c(O)c1/C=C1\[C@@H](C)CCC2C(C)(C)CCC[C@]12C (some centres not stated) | 5 |
| COc1ccc(O)c(O)c1CC1=C(C)CCC2C(C)(C)CCC[C@]12C (some centres not stated) | 5 |
| CC1=CCC[C@H]2[C@](C)(Cc3cc(O)ccc3O)[C@@H](C)CC[C@]12C [AVAROL] | 25 |
| CC1(C)CCC[C@]2(C)C3C=C4C(=CC(=O)C(O)=C4Cl)OC3CC[C@@]12C (some centres not stated) [CHOLOROPUUPEHENONE] | 0.3 |
| C=C1CCC[C@H]2[C@](C)(CC3=C(O)C(=O)C=C(OC)C3=O)[C@@H](C)CC[C@]12C [ILIMAQUINONE] | 100 |
| CC1(C)CCC[C@]2(C)[C@H]3C=C4C=C(O)C(=O)C=C4O[C@@]3(C)CC[C@@H]12 [PUUPEHENONE] | 6 |
| C[C@]12CC(=O)[C@@H](O)[C@](C)(CO)[C@@H]1CC[C@@]1(C)c3cocc3CC[C@H]21 [SPONGIADIOL] | 196 |
| CC1=CC[C@H]2C(C)(C)CCC[C@]2(C)[C@H]1C[C@H](OS(=O)(=O)[O-])[C@H](C)CCCc1ccoc1.C[N+](C)=C(N)N [SULFIRICIN] | > 190 |
